Experimental data: patent publication US20170105969A1, “CENICRIVIROC FOR THE TREATMENT OF HIV-2 INFECTION” (Tobira Therapeutics, Inc., priority 2014, published 2017)

Experiments:
[1] = target: CCR5 (Homo sapiens, UniProt P51681); test: CCR5 receptor occupancy / internalization in PBMCs by flow cytometry; format: cell-based
Experimental: The capacity of each drug to inhibit CCR5 or CCR2 internalization was evaluated. Cell-surface expression of CCR5 and CCR2 was assessed by flow cytometry, and fluorescence values were converted into molecules of equivalent soluble fluorescence (MESF).

[2] = system: RANTES-induced Ca2+ mobilization; test: RANTES-induced Ca2+ mobilization; format: cell-based
[3] = system: MCP-1; test: Study 201: inflammatory markers MCP-1, hs-CRP, IL-6; format: in vivo, human
Source text: Exploratory efficacy endpoints included changes in the inflammatory markers MCP-1, hs-CRP, and IL-6.
Subjects were antiretroviral treatment experienced, CCR5 antagonist-naïve, with HIV-1 RNA levels of at least 5000 copies/mL and CD4+ cell counts of at least 250 cells/mm^3. Subjects with HIV-2, hepatitis B virus, or hepatitis C virus co-infection or dual/mixed-tropic HIV-1 were ineligible. Other than their HIV-1 infection, subjects were generally healthy.

Chain of CCR5 (P51681 whole entry): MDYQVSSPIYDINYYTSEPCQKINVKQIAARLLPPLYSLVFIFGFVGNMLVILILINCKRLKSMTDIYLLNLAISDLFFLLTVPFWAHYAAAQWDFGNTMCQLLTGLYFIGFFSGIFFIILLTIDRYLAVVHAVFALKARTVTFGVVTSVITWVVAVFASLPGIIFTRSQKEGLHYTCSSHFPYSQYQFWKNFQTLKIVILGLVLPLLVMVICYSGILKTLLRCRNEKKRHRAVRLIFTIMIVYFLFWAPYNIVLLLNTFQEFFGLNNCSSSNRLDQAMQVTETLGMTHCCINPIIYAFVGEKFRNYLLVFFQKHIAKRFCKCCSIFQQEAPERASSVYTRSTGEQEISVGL

CCCCOCCOc1ccc(-c2ccc3c(c2)/C=C(/C(=O)Nc2ccc([S@@+]([O-])Cc4cncn4CCC)cc2)CCCN3CC(C)C)cc1 [CVC, (S)-8-[4-(2-Butoxyethoxy)phenyl]-1-isobutyl-N-(4-{[(1-propyl-1H-imidazol-5-yl)methyl]sulfinyl}phenyl)-1,2,3,4-tetrahydro-1-benzazocine-5-carboxamide]
effective concentration at which saturation of CCR5 was reached ([1]; CD4+ T cells): 3.1 nM | concentration achieving ≧90% receptor occupancy for CCR5 ([1]; CD4+ T-cells ex vivo in humans): 3.1 nM | effective concentration at which saturation of CCR5 was reached ([1]; CD8+ T cells): 2.3 nM | concentration achieving ≧90% receptor occupancy for CCR5 ([1]; CD8+ T-cells ex vivo in humans): 2.3 nM | prevention of RANTES-induced CCR5 internalization (in words) ([1]; PBMCs): at lower effective concentrations than MVC | cell-surface expression of CCR5 (in words) ([1]; in the absence of RANTES, PBMCs): increased cell-surface expression of CCR5 | RANTES-induced Ca2+ mobilization (in words) [2]: blocked | MCP-1, Baseline Mean ([3]; 25 mg cohort): 20.0 pg/mL | MCP-1, Baseline Median ([3]; 25 mg cohort): 16.0 pg/mL | MCP-1, Change from Baseline to Day 10, Median ([3]; 25 mg once daily): +25.0 pg/mL | MCP-1, Day 10 Mean ([3]; 25 mg once daily): 75.3 pg/mL | MCP-1, Day 10 Median ([3]; 25 mg once daily): 39.0 pg/mL | MCP-1, Baseline Mean ([3]; 50 mg cohort): 12.6 pg/mL | MCP-1, Baseline Median ([3]; 50 mg cohort): 6.0 pg/mL | MCP-1, Change from Baseline to Day 10, Median ([3]; 50 mg once daily): +56.0 pg/mL | MCP-1, Day 10 Mean ([3]; 50 mg once daily): 101.3 pg/mL | MCP-1, Day 10 Median ([3]; 50 mg once daily): 65.0 pg/mL | MCP-1, Baseline Mean ([3]; 75 mg cohort): 26.6 pg/mL | MCP-1, Baseline Median ([3]; 75 mg cohort): 8.0 pg/mL | MCP-1, Change from Baseline to Day 10, Median ([3]; 75 mg once daily): +36.0 pg/mL | MCP-1, Day 10 Mean ([3]; 75 mg once daily): 59.1 pg/mL | MCP-1, Day 10 Median ([3]; 75 mg once daily): 43.5 pg/mL | MCP-1, Baseline Mean ([3]; 150 mg cohort): 31.6 pg/mL | MCP-1, Baseline Median ([3]; 150 mg cohort): 19.5 pg/mL | MCP-1, Change from Baseline to Day 10, Median ([3]; 150 mg once daily): +322.0 pg/mL | MCP-1, Day 10 Mean ([3]; 150 mg once daily): 372.0 pg/mL | MCP-1, Day 10 Median ([3]; 150 mg once daily): 368.0 pg/mL | effect on hs-CRP or IL-6 levels (in words) ([3]; 10-day study): no effect
